Measured values from patent US20250171434A1, “SEC61 INHIBITORS AND USE THEREOF” (KEZAR LIFE SCIENCES, INC., priority 2022, published 2025).

Legend:
[1] = test system: PD1-ss+10aa/Gaussia Luciferase; test: Dox-Induced PD1-ss-Gluc Assay; assay type: cell-based; conditions: Flp-In 293 T-REx cells, 24 hours with doxycycline; Table 1; read-out: 24 hr Dox Inducible PD1ssGluc 293FRT/TO: Mean IC50
Procedure, shortened: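 Doxycycline-induced expression of a PD1-ss+10aa/Gaussia luciferase reporter is measured in stable Flp-In 293 T-REx cells. Compound dilutions containing doxycycline are added one day after plating and incubated at 37 °C, 5% CO2. Values for unassigned stereocentres refer to stereoisomer mixtures.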

[2] = test system: IL-2-FL/Gaussia Luciferase; test: Dox Inducible IL2-FL-Gluc Assay; assay type: cell-based; conditions: Table 1; for IC50: read-out: 24 hr Dox Inducible IL2FLGluc 293FRT/TO: Mean IC50; for 24 hr Dox Inducible IL2FLGluc 293FRT/TO: IL2/PD1: ratio of IC50s IL2/PD1
Procedure, shortened: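 Reporter is Gaussia luciferase fused to the 3′ end of full-length IL-2 (aa 1-153), expressed from a doxycycline-inducible T-REx construct in stably selected Flp-In 293 cells. Compounds were co-added with doxycycline and incubated at 37° C, 5% CO2.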

[3] = test system: CD47(ss + 10)Gluc; test: Dox-Induced CD47-ss-Gluc Assay; assay type: cell-based; conditions: Flp-In 293 T-REx cells, 24 hours with doxycycline; Table 1; read-out: 24 hr Dox Inducible CD47(ss + 10)Gluc 293FRT/TO: Mean IC50
[4] = test system: IL6R-ss+10aa/Gaussia Luciferase; test: Dox-induced IL-6R-ss-Gluc Assay; assay type: cell-based; conditions: Table 1; for IC50: Flp-In 293 T-REx cells, 24 hours with doxycycline, read-out: 24hr Dox Inducible IL6R(ss + 10)Gluc 293FRT/TO: Mean IC50; for 24hr Dox Inducible IL6R(ss + 10)Gluc 293FRT/TO: IL6R/PD1: ratio of IC50s IL6R/PD1
Procedure, shortened: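 Flp-In 293 T-REx cells stably carrying a doxycycline-inducible IL6R signal sequence+10 aa fused to Gaussia luciferase. Cells plated the day before; compound dilutions added in DMSO/media containing doxycycline and incubated at 37 °C, 5% CO2.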

[5] = test system: multiple myeloma cell line NCI-H929; test: H929 Cell Viability Assay; assay type: cell-based, human; conditions: Homo sapiens; NCI-H929 cells, 48 hours, Celltiter-Glo; read-out: 48 hr H929 Viability Celltiter-Glo: Mean EC50
Procedure, shortened: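 Plate the myeloma cells in RPMI 1640 with 10% FBS, add serially diluted compound, incubate for 48 hours at 37° C, then add CellTiter-Glo and read luciferase signal.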

[6] = test system: multiple myeloma cell line U266B1; test: U266 Cell Viability Assay; assay type: cell-based; conditions: Homo sapiens, U-266; U266B1 cells, 48 hours, Celltiter-Glo; read-out: 48 hr U266 Viability Celltiter-Glo: Mean EC50
Procedure, shortened: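 48 h treatment, 37° C./5% CO2, RPMI 1640 + 10% FBS; viability by CellTiter-Glo luminescence.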

[7] = Liver Microsome Stability Assay, mouse; assay type: in vitro ADME; conditions: mouse liver microsomes 1.0 mg/mL, 1.0 uM compound, 37° C., 1 mM NADPH
Procedure, shortened: (§1)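 Stability was judged from samples quenched at 0 and 30 minutes after incubating 1.0 uM compound with 1.0 mg/mL liver microsomes at 37° C, plus or minus 1 mM NADPH, in 0.1 M potassium phosphate containing 0.4% DMSO.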

[8] = Liver Microsome Stability Assay, rat; assay type: in vitro ADME; conditions: rat liver microsomes 1.0 mg/mL, 1.0 uM compound, 37° C., 1 mM NADPH
Procedure, shortened: as §1

[9] = Liver Microsome Stability Assay, monkey; assay type: in vitro ADME; conditions: monkey liver microsomes 1.0 mg/mL, 1.0 uM compound, 37° C., 1 mM NADPH
Procedure, shortened: as §1

[10] = Liver Microsome Stability Assay, human; assay type: in vitro ADME; conditions: human liver microsomes 1.0 mg/mL, 1.0 uM compound, 37° C., 1 mM NADPH
Procedure, shortened: as §1

[11] = Flp-In 293 T-REx cells, 24 hours with doxycycline

| SMILES | IC50 [1] [µM] | IC50 [2, 11] [µM] | 24 hr Dox Inducible IL2FLGluc 293FRT/TO: IL2/PD1 [2] | IC50 [3] [µM] | IC50 [4] [µM] | 24hr Dox Inducible IL6R(ss + 10)Gluc 293FRT/TO: IL6R/PD1 [4] | EC50 [5] [µM] | EC50 [6] [µM] | Liver Microsome Stability (Multiple Species): Mouse - % Remaining after 30 min w/ NADPH (%) [7] [%] | Liver Microsome Stability (Multiple Species): Rat - % Remaining after 30 min w/ NADPH (%) [8] [%] | Liver Microsome Stability (Multiple Species): Monkey - % Remaining after 30 min w/ NADPH (%) [9] [%] | Liver Microsome Stability (Multiple Species): Human - % Remaining after 30 min w/ NADPH (%) [10] [%] | 24 hr Dox Inducible IL2FLGluc 293FRT/TO: Mean IC50 (nM) [2, 11] |
| --- | --- | --- | --- | --- | --- | --- | --- | --- | --- | --- | --- | --- | --- |
| N#Cc1c(/C=C/c2csc(NC(=O)c3cc(OC(F)F)cn3Cc3ccnc(F)c3)n2)ncn1C1CC1 [Compound A27, (E)-N-(4-(2-(5-cyano-1-cyclopropyl-1H-imidazol-4-yl)vinyl)thiazol-2-yl)-4-(difluoromethoxy)-1-((2-fluoropyridin-4-yl)methyl)-1H-pyrrole-2-carboxamide] | 0.009 | 3.09 | 340.0 | 2.55 | 2.11 | 235 | 17.8 | > 25 | 70 | 2 | 47 | 78 |  |
| N#Cc1c(/C=C/c2csc(NC(=O)c3cc(Cl)cn3Cc3ccnc(F)c3)n2)ncn1C1CC1 [Compound A28, (E)-4-chloro-N-(4-(2-(5-cyano-1-cyclopropyl-1H-imidazol-4-yl)vinyl)thiazol-2-yl)-1-((2-fluoropyridin-4-yl)methyl)-1H-pyrrole-2-carboxamide] | 0.022 | 1.51 | 69.0 | 1.4 | 1.49 | 68 | > 25 | 15.5 | 67 | 2 | 9 | 22 |  |
| O=C(Nc1nc(/C=C/c2ncn(C3CC3)c2Cl)cs1)c1cc(C(F)F)cn1Cc1ccnc(F)c1 [Compound A29, (E)-N-(4-(2-(5-chloro-1-cyclopropyl-1H-imidazol-4-yl)vinyl)thiazol-2-yl)-4-(difluoromethyl)-1-((2-fluoropyridin-4-yl)methyl)-1H-pyrrole-2-carboxamide] | 0.048 | > 25 | >650 | > 25 | > 25 | >517 | > 25 | > 25 | 21 | 1 | 43 | 51 |  |
| O=C(Nc1nc(/C=C/c2ncn(C3CC3)c2Cl)cs1)c1cc(C(F)(F)F)cn1Cc1ccnc(F)c1 [Compound A30, (E)-N-(4-(2-(5-chloro-1-cyclopropyl-1H-imidazol-4-yl)vinyl)thiazol-2-yl)-1-((2-fluoropyridin-4-yl)methyl)-4-(trifluoromethyl)-1H-pyrrole-2-carboxamide] | 0.007 | 2.13 | 290.0 | 2.39 | 2.16 | 292 | > 25 | > 25 | 44 | <1 | 70 | 63 |  |
| O=C(Nc1nc(/C=C/c2ncn(C3CC3)c2Cl)cs1)c1cc(SC(F)(F)F)cn1Cc1ccnc(F)c1 [Compound A31, (E)-N-(4-(2-(5-chloro-1-cyclopropyl-1H-imidazol-4-yl)vinyl)thiazol-2-yl)-1-((2-fluoropyridin-4-yl)methyl)-4-((trifluoromethyl)thio)-1H-pyrrole-2-carboxamide] | 0.004 | > 25 | >6300 | 2.21 | 1.26 | 317 | 22.7 | > 25 | 82 | 65 | 25 | 10 |  |
| O=C(Nc1nc(/C=C/c2ncn(C3CC3)c2Cl)cs1)c1cc(SC(F)F)cn1Cc1ccnc(F)c1 [Compound A32, (E)-N-(4-(2-(5-chloro-1-cyclopropyl-1H-imidazol-4-yl)vinyl)thiazol-2-yl)-4-((difluoromethyl)thio)-1-((2-fluoropyridin-4-yl)methyl)-1H-pyrrole-2-carboxamide] | 0.01 |  | >2400 | 3.06 | 1.94 | 187 | > 25 | > 25 | 27 | 5 | 2 | 1 | I.A |
| CN[C@H]1CC[C@@H](/C=C/c2csc(NC(=O)c3cccn3Cc3ccncc3)n2)CC1 [Compound B11, N-(4-((E)-2-((1s,4s)-4-(methylamino)cyclohexyl)vinyl)thiazol-2-yl)-1-(pyridin-4-ylmethyl)-1H-pyrrole-2-carboxamide] | 18.7 | 14.1 | 0.8 | > 25 | > 25 | >1.3 | 24.7 | > 25 | 54 | 32 | 3 | 1 |  |
| CN[C@H]1CC[C@H](/C=C/c2csc(NC(=O)c3cccn3Cc3ccncc3)n2)CC1 [Compound B12, N-(4-((E)-2-((1r,4r)-4-(methylamino)cyclohexyl)vinyl)thiazol-2-yl)-1-(pyridin-4-ylmethyl)-1H-pyrrole-2-carboxamide] | 17.1 | 7.13 | 0.4 | 15.6 | > 25 | >1.5 | > 25 | > 25 | 57 | 12 | <1 | <1 |  |
| N#Cc1ccc(/C=C/c2csc(NC(=O)c3cccn3Cc3ccnc(F)c3)n2)nc1 [Compound B13, (E)-N-(4-(2-(5-cyanopyridin-2-yl)vinyl)thiazol-2-yl)-1-((2-fluoropyridin-4-yl)methyl)-1H-pyrrole-2-carboxamide] | 0.05 | > 25 | >500 | > 25 | > 25 | >500 | > 25 | > 25 | 4 | <1 | <1 | <1 |  |
